In assay [1] the target is Leucine-rich repeat serine/threonine-protein kinase 2 (Homo sapiens, UniProt Q5S007). As to the kind of experiment: Inhibition of LRRK2 conserved Lys2 (DLKPHNVLLFTLYPNAAIIAK) in human PBMC at 1 uM.
Assay [2] addresses Interleukin-1 receptor-associated kinase 1 (Homo sapiens) (UniProt P51617). The assay is described as follows: Inhibition of IRAK1 conserved Lys2 (AIQFLHQDSPSLIHGDIKSSNVLLDER) in human PBMC at 0.1 uM.
Assay [3] deals with Serine/threonine-protein kinase Chk2 (Homo sapiens) (UniProt O96017). The assay is described as follows: Inhibition of CHK2 labeling at conserved Lys2 (DLKPENVLLSSQEEDCLIK) in human PBMC at 0.1 uM.
Assay [4] concerns the target STE20-like serine/threonine-protein kinase (Homo sapiens) (UniProt Q9H2G2). The assay is described as follows: Inhibition of SLK conserved Lys1 (AQNKETSVLAAAKVIDTK) in human PBMC at 1 uM.
Assay [5] concerns the target Serine/threonine-protein kinase TBK1 (Homo sapiens) (UniProt Q9UHD2). The assay is described as follows: Inhibition of TBK1 conserved Lys2 (DIKPGNIMR) in human PBMC at 1 uM.
Assay [6] has as its target Mitogen-activated protein kinase kinase kinase 15 (Homo sapiens) (UniProt Q6ZN16). The assay is described as follows: Inhibition of MAP3K15 conserved Lys1 (IAIKEIPER) in human PBMC at 1 uM.
For assay [7], the target named is Serine/threonine-protein kinase 25 (Homo sapiens) (UniProt O00506). The assay is described as follows: Inhibition of YSK1 conserved Lys2 (DIKAANVLLSEQGDVK) in human PBMC at 1 uM.
Assay [8] concerns the target Cyclin-dependent kinase 17 (Homo sapiens) (UniProt Q00537). As to the kind of experiment: Inhibition of PCTAIRE2 conserved Lys2 (DLKPQNLLINEK) in human PBMC at 0.1 uM.
In assay [9] the target is T1, Serine/threonine-protein kinase ULK3 (Homo sapiens) (UniProt Q6PHR2).
T1 sequence (whole entry): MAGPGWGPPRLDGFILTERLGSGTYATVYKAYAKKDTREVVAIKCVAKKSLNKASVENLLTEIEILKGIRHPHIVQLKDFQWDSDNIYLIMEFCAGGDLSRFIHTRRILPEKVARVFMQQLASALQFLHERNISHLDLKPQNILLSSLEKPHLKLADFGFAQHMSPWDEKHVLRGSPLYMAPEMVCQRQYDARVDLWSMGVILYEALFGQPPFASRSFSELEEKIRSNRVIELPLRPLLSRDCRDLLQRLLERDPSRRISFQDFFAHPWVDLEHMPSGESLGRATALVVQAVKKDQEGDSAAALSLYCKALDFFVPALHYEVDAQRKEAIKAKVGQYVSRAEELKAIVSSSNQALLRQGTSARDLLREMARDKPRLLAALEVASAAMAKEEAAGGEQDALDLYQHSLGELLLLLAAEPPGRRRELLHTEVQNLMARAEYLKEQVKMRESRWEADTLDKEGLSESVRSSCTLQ
The assay is described as follows: Inhibition of ULK3 conserved Lys2 (NISHLDLKPQNILLSSLEKPHLK) in human PBMC at 0.1 uM.

The term inhibition denotes the relative decrease from the control value, in per cent.

Chain of Leucine-rich repeat serine/threonine-protein kinase 2 (Q5S007 whole entry): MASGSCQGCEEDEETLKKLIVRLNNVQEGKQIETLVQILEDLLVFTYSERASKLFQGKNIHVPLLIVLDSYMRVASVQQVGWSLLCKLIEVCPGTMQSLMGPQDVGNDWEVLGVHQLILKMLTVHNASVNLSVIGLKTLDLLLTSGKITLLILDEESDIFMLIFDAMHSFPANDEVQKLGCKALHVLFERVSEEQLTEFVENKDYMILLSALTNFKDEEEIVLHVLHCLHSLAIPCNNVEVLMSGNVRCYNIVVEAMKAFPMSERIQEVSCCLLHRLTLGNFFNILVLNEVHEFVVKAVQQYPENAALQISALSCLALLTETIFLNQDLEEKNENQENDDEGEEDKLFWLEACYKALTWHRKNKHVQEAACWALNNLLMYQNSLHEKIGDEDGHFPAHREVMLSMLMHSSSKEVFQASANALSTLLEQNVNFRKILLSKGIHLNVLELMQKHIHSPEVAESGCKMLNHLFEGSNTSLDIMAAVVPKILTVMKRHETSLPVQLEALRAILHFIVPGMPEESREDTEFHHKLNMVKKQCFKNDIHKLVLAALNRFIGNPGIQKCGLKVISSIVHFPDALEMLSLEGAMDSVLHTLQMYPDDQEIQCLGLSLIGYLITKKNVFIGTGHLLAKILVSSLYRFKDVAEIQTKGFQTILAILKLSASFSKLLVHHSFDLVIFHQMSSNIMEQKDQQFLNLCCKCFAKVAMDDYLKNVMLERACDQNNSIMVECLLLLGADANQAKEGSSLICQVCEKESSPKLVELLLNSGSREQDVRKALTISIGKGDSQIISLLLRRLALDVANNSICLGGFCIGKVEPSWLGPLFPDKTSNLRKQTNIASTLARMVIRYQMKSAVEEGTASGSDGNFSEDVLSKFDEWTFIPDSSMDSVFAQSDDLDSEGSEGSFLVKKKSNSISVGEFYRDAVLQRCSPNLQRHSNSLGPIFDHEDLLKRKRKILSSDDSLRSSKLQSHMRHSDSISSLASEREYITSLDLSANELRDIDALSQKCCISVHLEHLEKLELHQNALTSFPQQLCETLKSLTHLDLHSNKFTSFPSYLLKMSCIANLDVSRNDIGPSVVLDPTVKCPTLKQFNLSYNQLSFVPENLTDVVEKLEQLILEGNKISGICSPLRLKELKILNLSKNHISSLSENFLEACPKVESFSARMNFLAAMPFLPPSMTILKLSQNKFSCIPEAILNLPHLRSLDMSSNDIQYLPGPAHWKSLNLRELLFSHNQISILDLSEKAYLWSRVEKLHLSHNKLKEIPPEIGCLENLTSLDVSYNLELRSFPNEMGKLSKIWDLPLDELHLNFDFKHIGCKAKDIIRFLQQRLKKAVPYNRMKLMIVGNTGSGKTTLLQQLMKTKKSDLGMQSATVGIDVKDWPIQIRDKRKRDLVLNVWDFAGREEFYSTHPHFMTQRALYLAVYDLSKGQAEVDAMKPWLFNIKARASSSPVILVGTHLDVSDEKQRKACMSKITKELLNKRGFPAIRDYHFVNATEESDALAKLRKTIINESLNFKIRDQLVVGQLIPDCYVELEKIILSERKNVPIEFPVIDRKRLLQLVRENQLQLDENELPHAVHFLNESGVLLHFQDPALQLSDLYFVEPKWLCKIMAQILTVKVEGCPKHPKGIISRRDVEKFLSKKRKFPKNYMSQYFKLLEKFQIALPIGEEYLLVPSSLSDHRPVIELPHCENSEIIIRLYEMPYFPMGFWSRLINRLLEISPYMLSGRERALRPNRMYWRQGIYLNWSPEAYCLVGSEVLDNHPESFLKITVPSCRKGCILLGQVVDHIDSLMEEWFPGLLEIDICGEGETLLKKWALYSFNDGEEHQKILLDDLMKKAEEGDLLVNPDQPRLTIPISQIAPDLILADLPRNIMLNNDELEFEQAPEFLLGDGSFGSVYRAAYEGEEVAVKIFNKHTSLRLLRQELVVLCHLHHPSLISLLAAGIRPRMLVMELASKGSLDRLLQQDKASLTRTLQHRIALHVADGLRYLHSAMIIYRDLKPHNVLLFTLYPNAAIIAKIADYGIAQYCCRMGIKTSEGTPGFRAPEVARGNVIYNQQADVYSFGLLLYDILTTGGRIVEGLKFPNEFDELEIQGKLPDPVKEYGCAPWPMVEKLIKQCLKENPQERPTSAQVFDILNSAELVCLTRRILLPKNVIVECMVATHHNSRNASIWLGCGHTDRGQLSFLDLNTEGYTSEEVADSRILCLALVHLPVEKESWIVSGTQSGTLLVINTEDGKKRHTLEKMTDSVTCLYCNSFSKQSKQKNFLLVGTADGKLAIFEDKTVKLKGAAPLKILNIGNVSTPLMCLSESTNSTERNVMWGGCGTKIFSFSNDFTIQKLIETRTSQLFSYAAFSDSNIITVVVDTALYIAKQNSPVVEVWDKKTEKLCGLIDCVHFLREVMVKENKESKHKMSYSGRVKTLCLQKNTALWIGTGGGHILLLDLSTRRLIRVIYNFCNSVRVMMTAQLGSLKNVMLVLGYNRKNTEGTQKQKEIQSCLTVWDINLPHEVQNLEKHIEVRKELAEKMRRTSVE
Chain of Serine/threonine-protein kinase 25 (Homo sapiens) (O00506 whole entry, looked up): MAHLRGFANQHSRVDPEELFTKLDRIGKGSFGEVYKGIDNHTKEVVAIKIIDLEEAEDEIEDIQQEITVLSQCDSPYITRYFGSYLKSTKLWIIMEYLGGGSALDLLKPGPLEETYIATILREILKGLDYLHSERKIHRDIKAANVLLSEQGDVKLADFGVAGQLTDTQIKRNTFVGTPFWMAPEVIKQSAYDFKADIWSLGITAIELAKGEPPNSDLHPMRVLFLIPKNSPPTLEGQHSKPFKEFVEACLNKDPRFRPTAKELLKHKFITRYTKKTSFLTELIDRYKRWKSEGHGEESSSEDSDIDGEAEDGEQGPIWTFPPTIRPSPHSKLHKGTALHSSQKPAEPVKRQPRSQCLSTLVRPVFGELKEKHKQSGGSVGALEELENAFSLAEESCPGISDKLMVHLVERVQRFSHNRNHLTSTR
Chain of STE20-like serine/threonine-protein kinase (Homo sapiens) (Q9H2G2 whole entry, looked up): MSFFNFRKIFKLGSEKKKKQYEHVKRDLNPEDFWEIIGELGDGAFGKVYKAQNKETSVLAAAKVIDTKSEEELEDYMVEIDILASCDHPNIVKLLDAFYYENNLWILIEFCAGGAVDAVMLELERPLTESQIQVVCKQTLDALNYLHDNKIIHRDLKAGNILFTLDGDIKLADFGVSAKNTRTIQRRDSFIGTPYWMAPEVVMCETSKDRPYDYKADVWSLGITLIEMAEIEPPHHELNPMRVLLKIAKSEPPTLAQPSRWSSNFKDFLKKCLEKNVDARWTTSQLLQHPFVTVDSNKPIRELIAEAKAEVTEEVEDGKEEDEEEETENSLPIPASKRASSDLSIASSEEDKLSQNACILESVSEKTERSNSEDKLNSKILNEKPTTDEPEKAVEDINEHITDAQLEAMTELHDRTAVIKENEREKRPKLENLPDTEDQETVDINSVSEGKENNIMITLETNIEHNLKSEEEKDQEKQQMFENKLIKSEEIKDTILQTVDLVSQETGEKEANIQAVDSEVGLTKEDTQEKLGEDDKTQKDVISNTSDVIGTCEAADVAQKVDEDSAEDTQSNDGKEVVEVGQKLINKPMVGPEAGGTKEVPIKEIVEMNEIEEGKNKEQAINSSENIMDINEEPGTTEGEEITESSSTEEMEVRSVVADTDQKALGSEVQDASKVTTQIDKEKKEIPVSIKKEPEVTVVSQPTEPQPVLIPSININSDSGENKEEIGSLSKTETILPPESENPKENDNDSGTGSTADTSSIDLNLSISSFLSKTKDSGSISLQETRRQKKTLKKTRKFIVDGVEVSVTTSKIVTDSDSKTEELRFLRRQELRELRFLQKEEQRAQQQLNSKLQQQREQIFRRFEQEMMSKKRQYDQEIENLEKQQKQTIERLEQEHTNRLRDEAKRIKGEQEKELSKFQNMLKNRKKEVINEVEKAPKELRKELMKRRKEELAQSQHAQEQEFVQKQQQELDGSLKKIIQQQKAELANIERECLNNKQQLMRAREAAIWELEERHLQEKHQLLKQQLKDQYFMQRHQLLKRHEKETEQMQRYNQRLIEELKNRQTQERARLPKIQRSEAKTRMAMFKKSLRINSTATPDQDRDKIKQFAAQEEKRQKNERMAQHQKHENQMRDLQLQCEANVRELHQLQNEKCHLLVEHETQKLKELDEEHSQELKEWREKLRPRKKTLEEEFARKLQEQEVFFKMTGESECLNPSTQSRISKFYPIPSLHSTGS
Chain of Serine/threonine-protein kinase TBK1 (Homo sapiens) (Q9UHD2 whole entry): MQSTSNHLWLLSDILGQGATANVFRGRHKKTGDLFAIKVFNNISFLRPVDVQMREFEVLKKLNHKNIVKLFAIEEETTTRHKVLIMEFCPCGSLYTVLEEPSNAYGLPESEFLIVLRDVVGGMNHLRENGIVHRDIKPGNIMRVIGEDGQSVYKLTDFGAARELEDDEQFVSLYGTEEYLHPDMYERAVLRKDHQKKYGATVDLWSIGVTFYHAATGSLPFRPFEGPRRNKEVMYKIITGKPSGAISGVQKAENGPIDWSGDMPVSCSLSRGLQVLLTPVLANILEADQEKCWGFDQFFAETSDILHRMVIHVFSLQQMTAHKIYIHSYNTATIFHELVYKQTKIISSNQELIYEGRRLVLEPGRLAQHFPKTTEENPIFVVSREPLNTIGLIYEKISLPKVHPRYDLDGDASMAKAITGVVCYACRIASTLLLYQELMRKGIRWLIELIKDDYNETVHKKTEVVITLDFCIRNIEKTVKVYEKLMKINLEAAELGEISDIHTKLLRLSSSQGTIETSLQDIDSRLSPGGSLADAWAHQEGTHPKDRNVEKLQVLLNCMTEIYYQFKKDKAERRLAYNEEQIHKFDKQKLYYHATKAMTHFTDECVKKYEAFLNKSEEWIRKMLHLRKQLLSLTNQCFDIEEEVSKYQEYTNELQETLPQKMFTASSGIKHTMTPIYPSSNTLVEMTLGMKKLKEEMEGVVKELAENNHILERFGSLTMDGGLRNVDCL

Turning to `CC(C)n1cc(-c2cc(-c3ccc(CN4CCOCC4)cc3)cnc2N)nn1`, the inhibition in [1] was 48.5%; in [2] it was 22.7%; in assay [3] it was -4.8%; in assay [4] it was 0.3%; in assay [5] it was 11%; in assay [6] it was -3.3%. Besides, the inhibition in [7] was 9.9%; in assay [8], 21.7%; in [9], 27.2%.

These data come from ChEMBL document CHEMBL4043168, “The design and SAR of a novel series of 2-aminopyridine based LRRK2 inhibitors” (Bioorg Med Chem Lett, 2017).
